Assay results published in patent US20220273590A1, “COMPOUNDS FOR PREVENTION AND TREATMENT OF POST-OPERATIVE COGNITIVE DYSFUNCTION” (ABREXA PHARMACEUTICALS, INC., priority 2019, published 2022).
“And” between values parts separate entries of the source, which are not always exact repeats. Equal values may be shown once. Read-outs that look alike come from different tables or passages of the source.

Legend:
animal model of POCD = test: Open Field test after abdominal surgery; type: in vivo, Wistar rats
Method: Male Wistar rats (˜350 g) were randomly divided into 4 experimental groups; non-surgery; control abdominal surgery; surgery+acute J147 treatment (7 mg/rat by gavage, 4-5 hours before surgery); surgery+chronic J147 (500 mg/kg food, 1 week before surgery until the end of the study). Timed blood samples were collected. Days 9-11 post surgery, general behavior (Open field: OF) and cognitive performance (Novel Object/Novel Location Recognition: NOR/NLR; Morris Water Maze: MWM) were tested. Day 14, rats were sacrificed and blood and brain tissue were collected for further analyses. (Neuro)inflammation was examined by circulating cytokine levels and microglia activation in the brain. Abdominal surgery was performed as described previously by Hovens et al., 2014. Rats were anaesthetized using sevoflurane (±2.5% in air/O2=2/1) and received 0.01 mg/kg buprenorphine s.c. A heating blanket was used to preserve body temperature. An incision was made along the linea alba and the intestines were exteriorised. The upper mesenteric artery was isolated from surrounding tissue and clamped for a period of 30 minutes during which the intestines and surgical wound were covered with gauze soaked in saline, to prevent dehydration. During this time the animals were equipped with an indwelling jugular vein catheter to mimic insertion of a venous line in patients and allow timed blood sampling. For that, an incision was made at the subclavical region, the jugular vein was freed from surrounding tissue and a catheter was introduced and advanced into the vena cava, just above the right atrium. The other end of the catheter was guided subcutaneously to the head, and fixated on the skull with dental cement. The catheter was filled with PVP dissolved in heparin solution and closed with a plastic plug. After subsequent removal of the mesenteric artery clamp, the intestines were gently placed back and the abdominal wall and skin were closed separately by sutures. Clamping and reperfusion were visually verified by absence or presence of pulsation in the mesenteric artery distal to the clamp site. From induction to recovery, the procedure takes approximately 60 minutes. Post-operatively, the animals were allowed to recover and subsequently were housed individually. Rats were weighed daily at the last hour of the dark period. Maximal weight loss within the first 5 days post-surgery was taken as measure of experienced severity of surgery. Behavioral tests were performed in the dark (active) period of the rats. […] The movement as well as location of the rat was recorded as time in corner, walls and center, number of visits in the center and the distance walked, and analyzed with Ethovision (Noldus, the Netherlands). Rearing behavior was analyzed by Eline. […]

[1] = Plasma levels of J147 after oral administration in Basis suspension; type: in vivo, Adult Wister Rats; details: oral 20 mg/kg in Basis suspension
Method: (§1) Plasma samples obtained during surgery in J147-treated rats and 3 control rats were measured for circulating levels of J147. Results of pharmacokinetic measures of both plasma and brain levels of J147 in rats following oral administration of J147 in basis suspension at 20 mg/kg and also following intravascular administration at 5 mg/kg are shown in Table 2A-C below. When taking the absence of an appropriate peak as zero, mean concentration is 0 ng/ml in controls, 3.103 ng/ml in acutely treated rats and 0.233 ng/ml in chronically treated rats. J147 levels in food were verified as well (467 mg/kg). […] During the first 10 days after surgery and individual housing, rats on the diet ate on average 20±1 g, which was similar to the 20±1 g in surgery with control food and 23±1 g in non-surgery controls, verifying the anticipated intake of 10 mg J147/rat/day and further supporting no preference or aversion for the diet food.
(§2) Tables 2A-2B. Pharmacokinetic Measures of Plasma and Brain Levels of J147 Formulated in Basis Suspension Administered Orally to Adult Wister Rats at 20mg/kg.

[2] = Brain levels of J147 after oral administration in Basis suspension; type: in vivo, Adult Wister Rats; details: oral 20 mg/kg in Basis suspension, PO_B satellite
Method: as §1, §2
• All of the brain samples were added with […] by brain weight (g) to PBS volume (mL) ratio 1:3 for homogenization. • The actual concentration (ng/g) is the detected value (ng/mL) multiplied by 4. • BLOQ: Below limit of quantitation (LLOQ: 2 ng/g) • NA: not available

With `COc1cccc(/C=N/N(C(=O)C(F)(F)F)c2ccc(C)cc2C)c1` [J147] the “Open field: effect of treatment on time in the center area or distance walked” value (animal model of POCD; acute or chronic J147, surgery rats) was “no significant effects”, the “Open field: rearing behavior” value (animal model of POCD; surgery + chronic J147) was “significantly more rearing behavior” and the “Open field: visits to the center area” value (animal model of POCD; surgery + chronic J147) was “significantly more often”. The “Open field: time in the center” value (animal model of POCD; surgery + chronic J147, versus the other groups) was “tend to spend more time in the center”, the concentration at 0.25 h ([1]; Wistar, rat, plasma, po, 20 mg/kg, 0.25 h, individual rats (Rat 10, 11, 12), read-out: Plasma Conc.) was 1.29 ng/mL and the concentration at 0.25 h ([1]; Wistar, rat, plasma, po, 20 mg/kg, 0.25 h, mean of rats, read-out: Plasma Conc. Mean) was 1.34 ng/mL. It also gave a concentration at 0.5 h ([1]; Wistar, rat, plasma, po, 20 mg/kg, 0.5 h, mean of rats, read-out: Plasma Conc. Mean) of 3.94 ng/mL, a concentration at 1 h ([1]; Wistar, rat, plasma, po, 20 mg/kg, 1 h, individual rats (Rat 10, 11, 12), read-out: Plasma Conc.) of 7.34 ng/mL and a concentration at 1 h ([1]; Wistar, rat, plasma, po, 20 mg/kg, 1 h, mean of rats, read-out: Plasma Conc. Mean) of 8.19 ng/mL. It also gave a concentration at 2 h ([1]; Wistar, rat, plasma, po, 20 mg/kg, 2 h, individual rats (Rat 10, 11, 12), read-out: Plasma Conc.) of 15.1 ng/mL, a concentration at 2 h ([1]; Wistar, rat, plasma, po, 20 mg/kg, 2 h, mean of rats, read-out: Plasma Conc. Mean) of 15.8 ng/mL and a concentration at 4 h ([1]; Wistar, rat, plasma, po, 20 mg/kg, 4 h, mean of rats, read-out: Plasma Conc. Mean) of 8.8 ng/mL. The concentration at 6 h ([1]; Wistar, rat, plasma, po, 20 mg/kg, 6 h, individual rats (Rat 10, 11, 12), read-out: Plasma Conc.) was 3.14 ng/mL, the concentration at 6 h ([1]; Wistar, rat, plasma, po, 20 mg/kg, 6 h, mean of rats, read-out: Plasma Conc. Mean) was 2.46 ng/mL and the concentration at 8 h ([1]; Wistar, rat, plasma, po, 20 mg/kg, 8 h, individual rats (Rat 10, 11, 12), read-out: Plasma Conc.) was 0.822 ng/mL. The concentration at 8 h ([1]; Wistar, rat, plasma, po, 20 mg/kg, 8 h, mean of rats, read-out: Plasma Conc. Mean) was 0.788 ng/mL, the “Plasma Conc.” value ([1]; 0.25 h, individual rats (Rat 10, 11, 12), 20 mg/kg) was “BLOQ and 1.38 ng/mL” and the “Plasma Conc.” value ([1]; 0.5 h, individual rats (Rat 10, 11, 12), 20 mg/kg) was 1.52 ng/mL and 5.77 ng/mL and 4.54 ng/mL. For the same molecule, the “Plasma Conc.” value ([1]; 1 h, individual rats (Rat 10, 11, 12), 20 mg/kg) was 8.39 ng/mL and 8.83 ng/mL, the “Plasma Conc.” value ([1]; 2 h, individual rats (Rat 10, 11, 12), 20 mg/kg) was 16.9 ng/mL and 15.4 ng/mL and the “Plasma Conc.” value ([1]; 4 h, individual rats (Rat 10, 11, 12), 20 mg/kg) was 6.92 ng/mL and 6.35 ng/mL and 13.2 ng/mL. The “Plasma Conc.” value ([1]; 6 h, individual rats (Rat 10, 11, 12), 20 mg/kg) was 1.78 ng/mL and 2.47 ng/mL, the “Plasma Conc.” value ([1]; 8 h, individual rats (Rat 10, 11, 12), 20 mg/kg) was 0.654 ng/mL and 0.888 ng/mL and the “Plasma Conc.” value ([1]; 12 h, individual rats (Rat 10, 11, 12)) was “BLOQ”. The “Plasma Conc.” value ([1]; 16 h, individual rats (Rat 10, 11, 12)) was “BLOQ”, the “Plasma Conc.” value ([1]; 20 h, individual rats (Rat 10, 11, 12)) was “BLOQ” and the “Plasma Conc.” value ([1]; 24 h, individual rats (Rat 10, 11, 12)) was “BLOQ”. It also gave a concentration at 0.25 h ([2]; Wistar, rat, brain homogenate, po, 20 mg/kg, brain homogenate 1:3, Group 1, Group 2, LLOQ 2 ng/g, read-out: Brain Detected Conc.) of 0.736 ng/mL, a concentration at 0.5 h ([2]; Wistar, rat, brain homogenate, po, 20 mg/kg, 0.5 h, brain homogenate 1:3, Group 1, Group 2, LLOQ 2 ng/g, read-out: Brain Detected Conc.) of 1.14 ng/mL and a concentration at 1 h ([2]; Wistar, rat, brain homogenate, po, 20 mg/kg, 1 h, brain homogenate 1:3, Group 1, Group 2, LLOQ 2 ng/g, read-out: Brain Detected Conc.) of 7.01 ng/mL. For the same molecule, the concentration at 8 h ([2]; Wistar, rat, brain homogenate, po, 20 mg/kg, 8 h, brain homogenate 1:3, Group 1, Group 2, LLOQ 2 ng/g, read-out: Brain Detected Conc.) was 0.831 ng/mL, the concentration at 0.25 h ([2]; Wistar, rat, brain, po, 20 mg/kg, detected value multiplied by 4, Group 1, Group 2, read-out: Brain Actual Conc.) was 2.94 ng/g and the concentration at 0.5 h ([2]; Wistar, rat, brain, po, 20 mg/kg, 0.5 h, detected value multiplied by 4, Group 1, Group 2, read-out: Brain Actual Conc.) was 4.56 ng/g. The concentration at 0.5 h ([2]; Wistar, rat, brain, po, 20 mg/kg, 0.5 h, mean of Group 1 and 2, read-out: Brain Actual Conc. Mean) was 3.94 ng/g, the concentration at 1 h ([2]; Wistar, rat, brain, po, 20 mg/kg, 1 h, detected value multiplied by 4, Group 1, Group 2, read-out: Brain Actual Conc.) was 28 ng/g and the concentration at 1 h ([2]; Wistar, rat, brain, po, 20 mg/kg, 1 h, mean of Group 1 and 2, read-out: Brain Actual Conc. Mean) was 23.7 ng/g. For the same molecule, the concentration at 2 h ([2]; Wistar, rat, brain, po, 20 mg/kg, 2 h, mean of Group 1 and 2, read-out: Brain Actual Conc. Mean) was 28 ng/g, the concentration at 4 h ([2]; Wistar, rat, brain, po, 20 mg/kg, 4 h, mean of Group 1 and 2, read-out: Brain Actual Conc. Mean) was 20.6 ng/g and the concentration at 8 h ([2]; Wistar, rat, brain, po, 20 mg/kg, 8 h, detected value multiplied by 4, Group 1, Group 2, read-out: Brain Actual Conc.) was 3.32 ng/g. The concentration at 8 h ([2]; Wistar, rat, brain, po, 20 mg/kg, 8 h, mean of Group 1 and 2, read-out: Brain Actual Conc. Mean) was 3.26 ng/g, the “Brain Detected Conc.” value ([2]; 0.5 h, brain homogenate 1:3, Group 1, Group 2, LLOQ 2 ng/g, 20 mg/kg) was 0.830 ng/mL and the “Brain Actual Conc.” value ([2]; 0.5 h, detected value multiplied by 4, Group 1, Group 2, 20 mg/kg) was 3.32 ng/g. For the same molecule, the “Brain Detected Conc.” value ([2]; 1 h, brain homogenate 1:3, Group 1, Group 2, LLOQ 2 ng/g, 20 mg/kg) was 4.83 ng/mL, the “Brain Actual Conc.” value ([2]; 1 h, detected value multiplied by 4, Group 1, Group 2, 20 mg/kg) was 19.3 ng/g and the “Brain Detected Conc.” value ([2]; 8 h, brain homogenate 1:3, Group 1, Group 2, LLOQ 2 ng/g, 20 mg/kg) was 0.799 ng/mL. For the same molecule, the “Brain Actual Conc.” value ([2]; 8 h, detected value multiplied by 4, Group 1, Group 2, 20 mg/kg) was 3.20 ng/g, the “Brain Detected Conc.” value ([2]; 12 h, brain homogenate 1:3, Group 1, Group 2, LLOQ 2 ng/g) was “BLOQ” and the “Brain Detected Conc.” value ([2]; 16 h, brain homogenate 1:3, Group 1, Group 2, LLOQ 2 ng/g) was “BLOQ”. The “Brain Detected Conc.” value ([2]; 20 h, brain homogenate 1:3, Group 1, Group 2, LLOQ 2 ng/g) was “BLOQ” and the “Brain Detected Conc.” value ([2]; 24 h, brain homogenate 1:3, Group 1, Group 2, LLOQ 2 ng/g) was “BLOQ”.
